Active and inactive are the calls of the source.
Key:
Assay type in all cases: functional, organism-based
Staphylococcus aureus = experiment: Antimicrobial activity against Staphylococcus aureus ATCC 29213 assessed as inhibition of visible growth measured after 16 to 20 hrs by broth microdilution method
Escherichia coli = experiment: Antimicrobial activity against Escherichia coli ATCC 25922 assessed as inhibition of visible growth measured after 16 to 20 hrs by broth microdilution method
Bacillus thuringiensis = experiment: Antimicrobial activity against Bacillus thuringiensis SCSIO BT01 assessed as inhibition of visible growth measured after 16 to 20 hrs by broth microdilution method
Candida albicans = experiment: Antimicrobial activity against Candida albicans ATCC 10231 assessed as inhibition of visible growth measured after 16 to 20 hrs by broth microdilution method
Micrococcus luteus = experiment: Antimicrobial activity against Micrococcus luteus SCSIO ML01 assessed as inhibition of visible growth measured after 16 to 20 hrs by broth microdilution method
Enterococcus faecalis = experiment: Antimicrobial activity against Enterococcus faecalis ATCC 29212 assessed as inhibition of visible growth measured after 16 to 20 hrs by broth microdilution method
Bacillus subtilis = experiment: Antimicrobial activity against Bacillus subtilis SCSIO BS01 assessed as inhibition of visible growth measured after 16 to 20 hrs by broth microdilution method

Measured: Activity

CC[C@H](C)[C@H](NC(=O)[C@@H](CC(C)C)NC(=O)[C@H](NC(=O)[C@@H](NC(=O)[C@H](N)C(C)C)C(C)C)C(C)C)C(=O)N[C@@H](Cc1ccc(O)cc1)C(=O)O
inactive: all assays above

CC[C@H](C)[C@@H]1NC(=O)[C@@H](CC(C)C)NC(=O)[C@@H](C(C)C)NC(=O)[C@H](C(C)C)NC(=O)[C@@H](C(C)C)NC(=O)[C@H](Cc2ccc(O)cc2)NC1=O
inactive: all assays above

CC(C)C[C@H]1NC(=O)[C@@H](C(C)C)NC(=O)[C@H](C(C)C)NC(=O)[C@@H](C(C)C)NC(=O)[C@H](Cc2ccc(O)cc2)NC(=O)[C@H](C(C)C)NC1=O
inactive: all assays above

CC(C)C[C@@H](NC(=O)[C@H](NC(=O)[C@@H](NC(=O)[C@H](N)C(C)C)C(C)C)C(C)C)C(=O)N[C@H](C(=O)N[C@@H](Cc1ccc(O)cc1)C(=O)O)C(C)C
inactive: all assays above

— ChEMBL document CHEMBL2331447, “Nocardiamides A and B, two cyclohexapeptides from the marine-derived actinomycete Nocardiopsis sp. CNX037” (J Nat Prod, 2013)
